≈ marks a conversion by molar mass, not a printed value. Square brackets hold non-standard residues; d marks the D form. Peptide text beside a SMILES is read from it. Bip = N[C@@H](Cc1ccc(-c2ccccc2)cc1)C(=O)O; hPhe = N[C@@H](CCc1ccccc1)C(=O)O; hSer = N[C@@H](CCO)C(=O)O; Dap = NC[C@H](N)C(=O)O
Columns and labels:
Conditions in all cases: Table 8
A. baumannii = format: cell-based, Acinetobacter baumannii
Method: (§1) Bacterial growth conditions. LB or Mueller Hinton II cation-adjusted broth (MHB II, BBL 212322) was prepared according to manufacturer's instructions and supplemented with arabinose at 0.02% for overnight growth or at indicated concentrations in the description of the figures. Bacterial cultures were grown at 37° C. When appropriate, media was supplemented with kanamycin (50 μg/mL), carbenicillin (50 μg/mL), chloramphenicol (12.5 or 25 μg/mL), hygromycin (200 μg/mL), and/or gentamicin (10 μg/mL).
(§2) Peptide sensitivity and MIC assays. Lyophilized peptides (Smartox Biotechnology, CPC Scientific. ABclonal) were solubilized to 10 mM in Tris buffer, pH 8, prior to making a 2-fold dilution series in MHBII cation adjusted broth with highest final assay concentration of 400-800 μM. Bacteria were grown to log phase and added to final OD600˜0.001. The final EDTA concentration was 0.5 mM for E. coli strains and 0.125 mM for USA300. The final volume of 10 μL/well in a 384 well black, clear bottom plate (Corning) was spun <1 min at <250×g and then incubated at 37° C. After 4 h, an equal volume (10 μL) of BacTiter-Glo™ (Promega) was added to each well and luminescence was read after 5 min on an EnVision plate reader (PerkinElmer). To measure the minimal inhibitory concentrations (MICs), bacteria from fresh overnight plates or log phase cultures were diluted with or without EDTA and peptides as described above to final OD600˜0.0002. Plates were incubated at 37° C. for 20 h before measuring OD600 with an EnVision plate reader.

P. aeruginosa = format: cell-based, Pseudomonas aeruginosa
Method: as §1, §2

E. coli BW25113 = format: cell-based, Escherichia coli
Method: as §1, §2

K. pneumoniae = format: cell-based, Klebsiella pneumoniae
Method: as §1, §2

Row | SMILES | MIC A. baumannii (A. baumannii) | MIC R. aeruginosa (P. aeruginosa) | MIC E. coli BW25113 (E. coli BW25113) | MIC K. pneumoniae (K. pneumoniae)
1 | CSCC[C@H](NC(=O)[C@H](CN)NC(=O)[C@H](CCSC)NC(=O)[C@@H]1CCCN1C(=O)[C@H](Cc1ccc(O)cc1)NC(C)=O)C(=O)N[C@@H](CCCNC(=N)N)C(=O)N[C@@H](CCCNC(=N)N)C(=O)N[C@@H](Cc1ccccc1)C(=O)N[C@@H](CC(C)C)C(=O)N[C@@H](CCC(=O)O)C(=O)N[C@@H](CCCCN)C(=O)N[C@@H](Cc1c[nH]c2ccccc12)C(=O)NCC(=O)N[C@@H](CC(C)C)C(=O)N[C@@H](CC(C)C)C(=O)N[C@@H](CCCNC(=N)N)C(N)=O [compound 78] (Ac-YPM[Dap]MRRFLEKWGLLR-NH2) | 25.0 µM (≈ 53.1 µg/mL) | 100.0 µM (≈ 212 µg/mL) | 12.5 µM (≈ 26.5 µg/mL) | 25.0 µM (≈ 53.1 µg/mL)
2 | CSCC[C@H](NC(=O)[C@@H]1CCCN1C(=O)[C@H](Cc1ccc(O)cc1)NC(C)=O)C(=O)N[C@@H](CN)C(=O)N[C@@H](C)C(=O)N[C@@H](CCCNC(=N)N)C(=O)N[C@@H](CCCNC(=N)N)C(=O)N[C@@H](Cc1ccc(-c2ccccc2)cc1)C(=O)N[C@@H](CC(C)C)C(=O)N[C@@H](CCC(=O)O)C(=O)N[C@@H](CCCCN)C(=O)N[C@@H](Cc1c[nH]c2ccccc12)C(=O)NCC(=O)N[C@@H](CC(C)C)C(=O)N[C@@H](CC(C)C)C(=O)N[C@@H](CCCNC(=N)N)C(N)=O [compound 80] (Ac-YPM[Dap]ARR[Bip]LEKWGLLR-NH2) | 12.5 µM (≈ 26.7 µg/mL) | 25.0 µM (≈ 53.5 µg/mL) | 12.5 µM (≈ 26.7 µg/mL) | 12.5 µM (≈ 26.7 µg/mL)
3 | CSCC[C@H](NC(=O)[C@H](CN)NC(=O)[C@H](CCSC)NC(=O)[C@@H]1CCCN1C(=O)[C@H](Cc1ccc(O)cc1)NC(C)=O)C(=O)N[C@@H](CCCNC(=N)N)C(=O)N[C@@H](CCCNC(=N)N)C(=O)N[C@@H](Cc1ccc(-c2ccccc2)cc1)C(=O)N[C@@H](CC(C)C)C(=O)N[C@@H](CCC(=O)O)C(=O)N[C@@H](CCCCN)C(=O)N[C@@H](Cc1c[nH]c2ccccc12)C(=O)NCC(=O)N[C@@H](CC(C)C)C(=O)N[C@@H](CC(C)C)C(=O)N[C@@H](CCCNC(=N)N)C(N)=O [compound 82] (Ac-YPM[Dap]MRR[Bip]LEKWGLLR-NH2) | 12.5 µM (≈ 27.5 µg/mL) | 50.0 µM (≈ 110 µg/mL) | 100.0 µM (≈ 220 µg/mL) | 50.0 µM (≈ 110 µg/mL)
4 | CSCC[C@H](NC(=O)[C@@H]1CCCN1C(=O)[C@H](Cc1ccc(O)cc1)NC(C)=O)C(=O)N[C@H](C(=O)N[C@@H](C)C(=O)N[C@@H](CCCNC(=N)N)C(=O)N[C@@H](CCCNC(=N)N)C(=O)N[C@@H](CCc1ccccc1)C(=O)N[C@@H](CC(C)C)C(=O)N[C@@H](CCC(=O)O)C(=O)N[C@@H](CCCCN)C(=O)N[C@@H](Cc1c[nH]c2ccccc12)C(=O)NCC(=O)N[C@@H](CC(C)C)C(=O)N[C@@H](CC(C)C)C(=O)N[C@@H](CCCNC(=N)N)C(N)=O)[C@@H](C)O [compound 84] (Ac-YPMTARR[hPhe]LEKWGLLR-NH2) | 25.0 µM (≈ 52.3 µg/mL) | 200.0 µM (≈ 419 µg/mL) | 50.0 µM (≈ 105 µg/mL) | 50.0 µM (≈ 105 µg/mL)
5 | CSCC[C@H](NC(=O)[C@@H]1CCCN1C(=O)[C@H](Cc1ccc(O)cc1)NC(C)=O)C(=O)N[C@H](C(=O)N[C@@H](C)C(=O)N[C@@H](CCCNC(=N)N)C(=O)N[C@@H](CCCNC(=N)N)C(=O)N[C@@H](Cc1ccccc1)C(=O)N[C@@H](CC(C)C)C(=O)N[C@@H](CCO)C(=O)N[C@@H](CCCCN)C(=O)N[C@@H](Cc1c[nH]c2ccccc12)C(=O)NCC(=O)N[C@@H](CC(C)C)C(=O)N[C@@H](CC(C)C)C(=O)N[C@@H](CCCNC(=N)N)C(N)=O)[C@@H](C)O [compound 85] (Ac-YPMTARRFL[hSer]KWGLLR-NH2) | 100.0 µM (≈ 205 µg/mL) | 200.0 µM (≈ 410 µg/mL) | 200.0 µM (≈ 410 µg/mL) | 200.0 µM (≈ 410 µg/mL)

Reference: patent US20220135622A1, “ANTIBACTERIAL PEPTIDES AND METHODS OF USE” (priority 2019, published 2022)
